Format in all cases: cell-based
Experiment [1] deals with normal colon epithelial cells (FHC). In words: Cell cycle analysis (BrdU/7-AAD flow cytometry) in normal cells. The settings on record: 5-FU 10 μM, 48 hours. The procedure: (§1) To observe cell cycle changes, normal colon epithelial cells (FHC) and human colon cancer cell line DLD1 were treated with compound 1-91 at 2 μM and the positive control 5-FU at 10 μM. After 48 hours, the cells were washed with PBS, harvested, and sequentially treated with bromodeoxyuridine (BrdU) and 7-aminoactinomycin D (7-AAD). The cells were then stained with an anti-BrdU antibody conjugated with fluorescein isothiocyanate (FITC) and analyzed using a flow cytometer.

Experiment [2] shares this test system. The experiment can be described thus: Apoptosis (annexin V-FITC) in normal cells. The settings on record: 5-FU 10 μM, 48 hours. The procedure:
(§2) To observe changes in apoptosis, normal colon epithelial cells (FHC) and human colon cancer cell line (DLD1) were treated with compound 1-91 at 2 μM and the positive control 5-FU at 10 μM. After 48 hours, the cells were washed with PBS, harvested, and analyzed for apoptosis using an annexin V-FITC apoptosis detection kit.

The subject of experiment [3] is human colon cancer cell line (DLD1). The experiment can be described thus: Apoptosis (annexin V-FITC) in cancer cells. The settings on record: DLD1, 5-FU 10 μM, 48 hours. The protocol: as §2
Experiment [4] has as its system human colon cancer cell line DLD1. The experiment can be described thus: Cell cycle analysis (BrdU/7-AAD flow cytometry) in cancer cells. The settings on record: DLD1, 5-FU 10 μM, 48 hours. The protocol: as §1

Structures are written as SMILES.

Consider `O=c1[nH]cc(F)c(=O)[nH]1` [Example 5-FU, reference compound], for which, in experiment [1], the “cell cycle arrest, normal cells” value was “arrested the cell cycle at the G0/G1 phase in normal cells”. For the same compound, the “apoptosis, normal cells” value in experiment [2] is “induced apoptosis in both normal and cancer cells”. Moreover, the “apoptosis, cancer cells” value in experiment [3] is “induced apoptosis in both normal and cancer cells”. Also, in experiment [4], the “cell cycle arrest, cancer cells” value is on record as “at the Sub G1 phase in cancer cells”.

(Values after patent US20260138949A1, “NOVEL COMPOUND AS PHOSPHOLIPASE D INHIBITOR AND USE THEREOF” (UIF (UNIVERSITY INDUSTRY FOUNDATION), YONSEI UNIVERSITY, priority 2022, published 2026).)
